Experiment [1] addresses human DPP1 enzyme (Homo sapiens, UniProt P53634). Kind of experiment: Human DPP1 Enzyme IC50 Assay. Type of experiment: biochemical. Details: was first proteolytically processed into its mature form using recombinant human cathepsin L; purchased R&D Systems. The essentials: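 IC50 came from a four-parameter fit of activity relative to no-compound control, with fluorescence (Ex 350/Em 450 nm) read every 5 min for 90 min at 37 °C using 400 μM final H-Gly-Arg-AMC. Cathepsin L-matured human recombinant DPP1 was preincubated 10 min with compound at pH 6.0 (MES, DTT, 1% DMSO).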

For experiment [2], the target named is DPP1 in HL-60 cells (Homo sapiens, UniProt P53634). Briefly: DPP1 Cell IC50 assay. Details: host or cells: HL-60 cells. The class given is cell-based. To be noted: 60 min pre-incubation, H-Gly-Phe-AFC substrate, average of n runs. The procedure:
Example 99. DPP1 Cell IC50 assay
HL-60 cells (ATCC; Manassas, VA) were maintained in RPMI-1640 supplemented with 20% heat-inactivated FBS and 1× Antibiotic Antimycotic (Cytiva; Marlborough, MA). Media was changed every three to four days and cells were not allowed to exceed 1×10^6 cells per mL. Prior to assay, cells were collected by centrifugation at 500 rcf for 3 minutes, resuspended in PBS and counted. Cells were diluted in PBS to a concentration of 5×10^5 live cells per mL and transferred to black 96-well plates for assay, 60 μL per well. Test articles were diluted in PBS plus 0.5% DMSO, and 20 μL was added to each assay well. Compound was allowed to pre-incubate with cells with gentle shaking at 100 rpm for 60 minutes at 37° C. in a cell culture incubator maintained at 5% CO2, after which 20 μL of 500 μM H-Gly-Phe-AFC substrate (MP Biomedicals; Solon, OH) was added to each well. Plates were returned to the incubator with shaking at 100 rpm for 30 minutes, after which fluorescence was measured at Excitation/Emission 400/505 nm. % Inhibition was calculated from RFU values compared to control cell wells that received only PBS plus 0.5% DMSO. IC50 values for each compound were calculated via the XLFit (IDBS Version 5.3.1.3) Add-On to Microsoft Excel using the four parameter fit equation y=(A+((B−A)/(1+((C/x)^D)))), which appears as equation number 205 (4 Parameter Logistic Model or Sigmoidal Dose-Response Model) in XLFit. IC50 was defined as the compound concentration at which 50% of enzyme activity was inhibited when compared to the no-compound control.

Where [3] appears, read: activated recombinant human DPP1, 400 μM H-Gly-Arg-AMC, 10 minutes pre-incubation at 37° C., pH 6.0, average of n runs, read-out: Avg. IC50 (Human DPP1 enzyme IC50 value ranges).
Setting [4] is: read-out: Avg. IC50 (DPP1 Cell IC50 value ranges).
Where [5] appears, read: Avg. IC50 (DPP1 Cell IC50 value ranges).

Where two headings read alike, the source gives them in different places.

human DPP1 enzyme, sequence (P53634 25-134 limits assumed): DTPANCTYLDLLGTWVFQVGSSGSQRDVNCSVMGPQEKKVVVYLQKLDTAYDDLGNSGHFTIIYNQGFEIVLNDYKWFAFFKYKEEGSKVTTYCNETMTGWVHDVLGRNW
human DPP1 enzyme, sequence (P53634 231-394 limits assumed): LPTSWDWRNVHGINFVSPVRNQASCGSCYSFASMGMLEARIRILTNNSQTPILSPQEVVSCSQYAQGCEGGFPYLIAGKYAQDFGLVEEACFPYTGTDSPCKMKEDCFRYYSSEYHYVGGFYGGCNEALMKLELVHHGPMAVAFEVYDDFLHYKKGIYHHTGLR
human DPP1 enzyme, sequence (P53634 395-463 limits assumed): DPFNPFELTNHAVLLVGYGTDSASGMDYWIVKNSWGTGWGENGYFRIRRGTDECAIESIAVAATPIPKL
DPP1 in HL-60 cells, sequence (P53634 25-463): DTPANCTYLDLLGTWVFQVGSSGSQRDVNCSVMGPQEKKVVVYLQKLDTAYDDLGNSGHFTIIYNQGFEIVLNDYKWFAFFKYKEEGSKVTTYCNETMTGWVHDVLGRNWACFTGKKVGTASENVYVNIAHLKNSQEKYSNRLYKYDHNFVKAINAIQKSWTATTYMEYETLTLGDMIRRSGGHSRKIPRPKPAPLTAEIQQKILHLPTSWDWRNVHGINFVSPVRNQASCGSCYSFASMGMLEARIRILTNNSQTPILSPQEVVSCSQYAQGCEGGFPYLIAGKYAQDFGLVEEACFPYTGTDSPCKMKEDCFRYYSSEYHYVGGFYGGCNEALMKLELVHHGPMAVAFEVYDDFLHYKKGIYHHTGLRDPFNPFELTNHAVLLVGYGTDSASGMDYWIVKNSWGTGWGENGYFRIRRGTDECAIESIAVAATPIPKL

One may read the IC50 as the concentration that inhibits the measured activity by half. With `CO[C@H]1CCO[C@H](C(=O)N[C@H](C#N)Cc2ccc(-c3ccc4c(n3)CCCN4)cc2)CNC1` [Compound A43, (2S,6S)—N—((S)-1-cyano-2-(4-(5,6,7,8-tetrahydro-1,5-naphthyridin-2-yl)phenyl)ethyl)-6-methoxy-1,4-oxazocane-2-carboxamide], the IC50 is above 15 nM in experiment [1] (setting [3]) and above 2.5 nM in experiment [2] (setting [4]).

As for `CO[C@H]1CCO[C@H](C(=O)N[C@H](C#N)Cc2ccc(-c3cc4c(C)nc(C)cn4c3)s2)CNC1` [Compound A44, (2S,6S)—N-[(1S)-1-cyano-2-(5-{1,3-dimethylpyrrolo[1,2-a]pyrazin-7-yl}thiophen-2-yl)ethyl]-6-methoxy-1,4-oxazocane-2-carboxamide], the results for the half-maximal inhibitory concentration (IC50) in experiment [1] (setting [3]) and in experiment [2] (setting [4]) were above 15 nM and above 2.5 nM, respectively.

Consider `CO[C@H]1CCO[C@H](C(=O)N[C@H](C#N)Cc2ccc(-c3cc4c(C)nc(C)cn4c3)cc2F)CNC1` [Compound A48, (2S,6S)—N-[(1S)-1-cyano-2-(4-{1,3-dimethylpyrrolo[1,2-a]pyrazin-7-yl}-2-fluorophenyl)ethyl]-6-methoxy-1,4-oxazocane-2-carboxamide], for which the figures for the IC50 in experiment [1] (setting [3]) and in experiment [2] (setting [4]) were 5 to 15 nM and 1 to 2.5 nM, respectively.

As for `CO[C@H]1CCO[C@H](C(=O)N[C@H](C#N)Cc2ccc(-c3ccc4c(n3)CCCN4)cc2F)CNC1` [Compound A49, (2S,6S)—N-[(1S)-1-cyano-2-[2-fluoro-4-(5,6,7,8-tetrahydro-1,5-naphthyridin-2-yl)phenyl]ethyl]-6-methoxy-1,4-oxazocane-2-carboxamide], the IC50 in experiment [1] (setting [3]) was 5 to 15 nM; in experiment [2] (setting [4]), above 2.5 nM.

`CO[C@@H]1CCNC[C@@H](C(=O)N[C@H](C#N)Cc2ccc(-c3ccc4c(n3)CCCN4)cc2F)OC1` [Compound A50, (2S,7R)—N-[(1S)-1-cyano-2-[2-fluoro-4-(5,6,7,8-tetrahydro-1,5-naphthyridin-2-yl)phenyl]ethyl]-7-methoxy-1,4-oxazocane-2-carboxamide]: the concentration for half-maximal inhibition (IC50) in experiment [1] (setting [3]) is below 5 nM; in experiment [2] (setting [4]) it was 1 to 2.5 nM.

For the compound `N#C[C@H](Cc1ccc(-c2cc3cnccn3c2)cc1)NC(=O)[C@@H]1CNCCCO1` [Compound A54], the values for the IC50 in experiment [1] (setting [3]) and in experiment [2] (setting [4]) were above 15 nM and above 2.5 nM, respectively.

For `Cc1cc2cc(-c3ccc(C[C@@H](C#N)NC(=O)[C@@H]4CNCCCO4)cc3)cn2c(C)n1` [Compound A57], the half-maximal inhibitory concentration (IC50) is above 15 nM in experiment [1] (setting [3]) and above 2.5 nM in experiment [2] (setting [4]).

As for `Cc1nc(C)c2cc(-c3ccc(C[C@@H](C#N)NC(=O)[C@@H]4CNCCCO4)cc3)cn2c1C` [Compound A60], the IC50 in experiment [1] (setting [3]) is above 15 nM; in experiment [2] (setting [4]) it was above 2.5 nM.

For the compound `Cc1ncc(C)n2cc(-c3ccc(C[C@@H](C#N)NC(=O)[C@@H]4CNCCCO4)cc3)cc12` [Compound A63], the values for the IC50 in experiment [1] (setting [3]) and in experiment [2] (setting [4]) were above 15 nM and above 2.5 nM, respectively.

Regarding `N#C[C@H](Cc1ccc(-c2cc3c(F)nccn3c2)cc1)NC(=O)[C@@H]1CNCCCO1` [Compound A66], the IC50 in experiment [1] (setting [3]) was above 15 nM; in experiment [2] (setting [4]) it was above 2.5 nM.

As to `CO[C@@H]1CNC[C@@H](C(=O)N[C@H](C#N)Cc2ccc(-c3cc4c(C)nc(C)cn4c3)cc2F)OC1` [Compound A88-A], the IC50 is above 15 nM in experiment [1] (setting [3]) and above 2.5 nM in experiment [2] (setting [4]).

For the compound `CO[C@H]1CNC[C@@H](C(=O)N[C@H](C#N)Cc2ccc(-c3cc4c(C)nc(C)cn4c3)cc2F)OC1` [Compound A88-B], the IC50 is below 5 nM in experiment [1] (setting [3]) and below 1 nM in experiment [2] (setting [4]).

Turning to `Cn1ccc2ncc(-c3ccc(C[C@@H](C#N)NC(=O)[C@@H]4CNCCCO4)cc3)cc21` [Compound A143], the IC50 in experiment [1] (setting [3]) is above 15 nM; in experiment [2] (setting [4]), above 2.5 nM.

Consider `CO[C@@H]1CCNC[C@@H](C(=O)N[C@H](C#N)Cc2ccc(-c3ccc4c(c3)CCC(=O)N4C)cc2)OC1` [Compound A145], for which the values for the IC50 in experiment [1] (setting [3]) and in experiment [2] (setting [4]) were below 5 nM and 1 to 2.5 nM, respectively.

`COC1CNC[C@@H](C(=O)N[C@H](C#N)Cc2ccc(-c3ccc4c(c3)CCC(=O)N4C)cc2)OC1` (some centres unmarked) [Compound A146]: the IC50 was below 5 nM in experiment [1] (setting [3]) and below 1 nM in experiment [2] (setting [4]).

In the case of `CO[C@H]1CCO[C@H](C(=O)N[C@H](C#N)Cc2ccc(-c3ccc4c(c3)CCC(=O)N4C)cc2)CNC1` [Compound A147], the IC50 in experiment [1] (setting [3]) lay within 5 to 15 nM; in experiment [2] (setting [4]), 1 to 2.5 nM.

For `C[C@@H]1NC[C@@H](C(=O)N[C@H](C#N)Cc2ccc(-c3ccc4c(c3)CCC(=O)N4C)cc2)OC[C@@H]1O` [Compound A148], the IC50 in experiment [1] (setting [3]) is above 15 nM; in experiment [2] (setting [4]) it was above 2.5 nM.

Regarding `CN1C(=O)CCc2cc(-c3ccc(C[C@@H](C#N)NC(=O)[C@@H]4CNCC[C@@H](F)CO4)cc3)ccc21` [Compound A149], the IC50 in experiment [1] (setting [3]) is above 15 nM; in experiment [2] (setting [4]), 1 to 2.5 nM.

As for `CO[C@@H]1CCNC[C@@H](C(=O)N[C@H](C#N)Cc2ccc(-c3ccc4c(c3)CCC(=O)N4C)cc2F)OC1` [Compound A151], the IC50 in experiment [1] (setting [3]) was below 5 nM; in experiment [2] (setting [4]), 1 to 2.5 nM.

Take `COC1CNC[C@@H](C(=O)N[C@H](C#N)Cc2ccc(-c3ccc4c(c3)CCC(=O)N4C)cc2F)OC1` (some centres unmarked) [Compound A152]: the half-inhibitory concentration (IC50) in experiment [1] (setting [3]) is below 5 nM; in experiment [2] (setting [4]) it was below 1 nM.

Consider `CO[C@H]1CCO[C@H](C(=O)N[C@H](C#N)Cc2ccc(-c3ccc4c(c3)CCC(=O)N4C)cc2F)CNC1` [Compound A153], for which the IC50 is below 5 nM in experiment [1] (setting [3]) and below 1 nM in experiment [2] (setting [4]).

On to `C[C@@H]1NC[C@@H](C(=O)N[C@H](C#N)Cc2ccc(-c3ccc4c(c3)CCC(=O)N4C)cc2F)OC[C@@H]1O` [Compound A154], for which the IC50 in experiment [1] (setting [3]) lay within 5 to 15 nM; in experiment [2] (setting [4]), 1 to 2.5 nM.

Regarding `CN1C(=O)CCc2cc(-c3ccc(C[C@@H](C#N)NC(=O)[C@@H]4CNCC[C@@H](F)CO4)c(F)c3)ccc21` [Compound A155], the figures for the IC50 in experiment [1] (setting [3]) and in experiment [2] (setting [4]) were 5 to 15 nM and 1 to 2.5 nM, respectively.

Consider `COC1CNC[C@@H](C(=O)N[C@H](C#N)Cc2ccc(-c3ccc4c(F)nn(C)c4c3)cc2)OC1` (some centres unmarked) [Compound A158], for which the figures for the IC50 in experiment [1] (setting [3]) and in experiment [2] (setting [4]) were below 5 nM and below 1 nM, respectively.

Turning to `C[C@@H]1NC[C@@H](C(=O)N[C@H](C#N)Cc2ccc(-c3ccc4c(F)nn(C)c4c3)cc2)OC[C@@H]1O` [Compound A160], the results for the IC50 in experiment [1] (setting [3]) and in experiment [2] (setting [4]) were 5 to 15 nM and 1 to 2.5 nM, respectively.

Regarding `Cn1nc(F)c2ccc(-c3ccc(C[C@@H](C#N)NC(=O)[C@@H]4CNCC[C@@H](F)CO4)cc3)cc21` [Compound A161], the IC50 was above 15 nM in experiment [1] (setting [3]) and above 2.5 nM in experiment [2] (setting [4]).

As to `COC1CNC[C@@H](C(=O)N[C@H](C#N)Cc2ccc(-c3ccc4c(F)nn(C)c4c3)cc2F)OC1` (some centres unmarked) [Compound A164], the IC50 in experiment [1] (setting [3]) is below 5 nM; in experiment [2] (setting [4]), below 1 nM.

For `CO[C@H]1CCO[C@H](C(=O)N[C@H](C#N)Cc2ccc(-c3ccc4c(F)nn(C)c4c3)cc2F)CNC1` [Compound A165], the IC50 in experiment [1] (setting [3]) was in the range of 5 to 15 nM; in experiment [2] (setting [4]), 1 to 2.5 nM.

For `C[C@@H]1NC[C@@H](C(=O)N[C@H](C#N)Cc2ccc(-c3ccc4c(F)nn(C)c4c3)cc2F)OC[C@@H]1O` [Compound A166], the IC50 in experiment [1] (setting [3]) fell in the range of 5 to 15 nM; in experiment [2] (setting [4]) it was 1 to 2.5 nM.

Regarding `COC1CNC[C@@H](C(=O)N[C@H](C#N)Cc2cnc(-c3ccc4c(F)nn(C)c4c3)s2)OC1` (some centres unmarked) [Compound A169], the IC50 was below 5 nM in experiment [1] (setting [3]) and below 1 nM in experiment [2] (setting [4]).

On to `C[C@@H]1NC[C@@H](C(=O)N[C@H](C#N)Cc2cnc(-c3ccc4c(F)nn(C)c4c3)s2)OC[C@@H]1O` [Compound A171], for which the IC50 in experiment [1] (setting [3]) was above 15 nM; in experiment [2] (setting [4]), above 2.5 nM.

Turning to `N#C[C@H](Cc1ccc2c(c1)OCc1ccc(C3CCNC3)cc1-2)NC(=O)[C@@H]1CNCCCO1` (stereo partly drawn) [Compound B1, (2S)—N-[(1S)-1-cyano-2-[9-(pyrrolidin-3-yl)-6H-benzo[c]chromen-3-yl]ethyl]-1,4-oxazepane-2-carboxamide], the concentration for half-maximal inhibition (IC50) is above 15 nM in experiment [1] and above 2.5 nM in experiment [2] (setting [5]).

In the case of `N#Cc1ccc2c(c1)COc1c-2ccc(CC(C#N)NC(=O)[C@@H]2CNCCCO2)c1F` (stereo partly drawn) [Compound B4, (2S)—N-(1-cyano-2-{8-cyano-4-fluoro-6H-benzo[c]chromen-3-yl}ethyl)-1,4-oxazepane-2-carboxamide], the IC50 is above 15 nM in experiment [1] and above 2.5 nM in experiment [2] (setting [5]).

With `N#C[C@@H](Cc1cc2c(cc1F)-c1cc(C3COC3)c(F)cc1CO2)NC(=O)[C@@H]1CNCCCCO1` [Compound B10-A], the IC50 in experiment [1] (setting [3]) is above 15 nM; in experiment [2] (setting [4]), above 2.5 nM.

For the origin of these results see patent US20260008760A1, “DIPEPTIDYL PEPTIDASE 1 INHIBITORS AND USES THEREOF” (Insmed Incorporated, priority 2024, published 2026).
